Assay results published in ChEMBL document CHEMBL1201862, “PubChem BioAssay data set” (2004).
Calls of active or inactive are those of the source.

What was measured:
[1] = molecular target: T1, Nucleotide-binding oligomerization domain-containing protein 1 (Homo sapiens, UniProt Q9Y239); assay: SAR analysis of compounds that inhibit NOD1 - Set 3. [Related pubchem assays (depositor defined):AID1566, AID1575, AID1578, AID1849, AID1852, AID2333, AID2335, AID2466]; format: functional
T1 sequence (Q9Y239 whole entry): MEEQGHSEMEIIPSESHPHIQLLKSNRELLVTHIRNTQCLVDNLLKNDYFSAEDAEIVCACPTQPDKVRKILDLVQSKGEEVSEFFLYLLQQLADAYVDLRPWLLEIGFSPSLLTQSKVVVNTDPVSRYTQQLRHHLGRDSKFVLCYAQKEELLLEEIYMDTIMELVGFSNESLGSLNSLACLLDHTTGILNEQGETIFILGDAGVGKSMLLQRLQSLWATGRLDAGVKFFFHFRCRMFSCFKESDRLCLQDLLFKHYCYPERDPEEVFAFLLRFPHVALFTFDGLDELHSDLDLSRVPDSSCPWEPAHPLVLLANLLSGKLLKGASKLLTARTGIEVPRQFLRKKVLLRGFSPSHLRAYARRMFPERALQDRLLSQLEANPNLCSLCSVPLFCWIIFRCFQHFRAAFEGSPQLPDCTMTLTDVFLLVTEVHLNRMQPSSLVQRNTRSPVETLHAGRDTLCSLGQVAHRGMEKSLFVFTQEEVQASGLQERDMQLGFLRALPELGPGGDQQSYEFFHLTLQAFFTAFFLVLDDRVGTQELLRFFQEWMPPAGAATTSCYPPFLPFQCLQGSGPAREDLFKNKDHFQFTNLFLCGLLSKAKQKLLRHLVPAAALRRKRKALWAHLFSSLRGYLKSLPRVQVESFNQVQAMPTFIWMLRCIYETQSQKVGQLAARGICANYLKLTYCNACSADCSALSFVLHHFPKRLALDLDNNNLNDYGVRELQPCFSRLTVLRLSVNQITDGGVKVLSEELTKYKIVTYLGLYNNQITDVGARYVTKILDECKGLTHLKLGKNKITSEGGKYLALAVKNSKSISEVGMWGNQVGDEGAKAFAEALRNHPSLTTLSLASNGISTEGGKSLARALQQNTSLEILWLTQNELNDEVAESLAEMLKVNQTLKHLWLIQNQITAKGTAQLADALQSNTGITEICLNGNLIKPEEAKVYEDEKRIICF

[2] = molecular target: T1, Nucleotide-binding oligomerization domain-containing protein 1; assay: SAR analysis of NF-kappaB dependent luciferase using DAP as an inducer - Set 2. [Related pubchem assays (depositor defined):AID1566, AID1575, AID1578, AID1579, AID1849, AID1852, AID2264]; format: functional
Interleukin-8 [3] = molecular target: T2, Interleukin-8 (Homo sapiens, UniProt P10145); assay: SAR analysis of GM-Tri-DAP induced IL-8 secretion in MCF-7/NOD1 cells - Set 2. [Related pubchem assays (depositor defined):AID1575, AID1578, AID2333]; format: functional, cell-based
T2 sequence (P10145 whole entry): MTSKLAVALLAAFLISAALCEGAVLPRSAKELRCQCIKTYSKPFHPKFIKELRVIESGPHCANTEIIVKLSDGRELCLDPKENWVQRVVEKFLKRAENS

HEK293 [4] = assay: SAR analysis of compounds that are cytotoxic to HEK293 - Set 2. [Related pubchem assays (depositor defined):AID1575, AID1578, AID1849, AID2001, AID2333, AID2334, AID2335, AID2337, AID2800]; format: functional, cell-based; conditions: Homo sapiens
Tumor necrosis factor = Tumor necrosis factor (Homo sapiens, UniProt P01375); assay: TNFa-triggered NF-kB activation inhibitors, SAR follow-up, cell-based, set 3 (AID 2801); format: functional
Tumor necrosis factor, sequence (P01375 whole entry): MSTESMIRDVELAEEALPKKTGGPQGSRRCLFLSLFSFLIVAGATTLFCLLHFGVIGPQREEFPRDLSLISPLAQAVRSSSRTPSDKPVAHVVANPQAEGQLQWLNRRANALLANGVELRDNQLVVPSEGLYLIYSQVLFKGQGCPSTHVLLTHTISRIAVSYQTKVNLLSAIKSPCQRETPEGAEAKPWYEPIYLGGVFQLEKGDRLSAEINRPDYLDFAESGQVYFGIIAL

Interleukin-8 [5] = molecular target: T2, Interleukin-8; assay: SAR analysis of Tumor necrosis factor alpha (TNF-alpha) induced IL-8 secretion in MCF-7/NOD1 cells - Set 2. [Related pubchem assays (depositor defined):AID1575, AID2250, AID2260]; format: functional, cell-based
[6] = molecular target: T3, Nucleotide-binding oligomerization domain-containing protein 2 (Homo sapiens, UniProt Q9HC29); assay: NOD2 inhibitors, SAR follow-up, set 2 (AID 2475); format: functional
T3 sequence (Q9HC29 whole entry, the tested form may be a part): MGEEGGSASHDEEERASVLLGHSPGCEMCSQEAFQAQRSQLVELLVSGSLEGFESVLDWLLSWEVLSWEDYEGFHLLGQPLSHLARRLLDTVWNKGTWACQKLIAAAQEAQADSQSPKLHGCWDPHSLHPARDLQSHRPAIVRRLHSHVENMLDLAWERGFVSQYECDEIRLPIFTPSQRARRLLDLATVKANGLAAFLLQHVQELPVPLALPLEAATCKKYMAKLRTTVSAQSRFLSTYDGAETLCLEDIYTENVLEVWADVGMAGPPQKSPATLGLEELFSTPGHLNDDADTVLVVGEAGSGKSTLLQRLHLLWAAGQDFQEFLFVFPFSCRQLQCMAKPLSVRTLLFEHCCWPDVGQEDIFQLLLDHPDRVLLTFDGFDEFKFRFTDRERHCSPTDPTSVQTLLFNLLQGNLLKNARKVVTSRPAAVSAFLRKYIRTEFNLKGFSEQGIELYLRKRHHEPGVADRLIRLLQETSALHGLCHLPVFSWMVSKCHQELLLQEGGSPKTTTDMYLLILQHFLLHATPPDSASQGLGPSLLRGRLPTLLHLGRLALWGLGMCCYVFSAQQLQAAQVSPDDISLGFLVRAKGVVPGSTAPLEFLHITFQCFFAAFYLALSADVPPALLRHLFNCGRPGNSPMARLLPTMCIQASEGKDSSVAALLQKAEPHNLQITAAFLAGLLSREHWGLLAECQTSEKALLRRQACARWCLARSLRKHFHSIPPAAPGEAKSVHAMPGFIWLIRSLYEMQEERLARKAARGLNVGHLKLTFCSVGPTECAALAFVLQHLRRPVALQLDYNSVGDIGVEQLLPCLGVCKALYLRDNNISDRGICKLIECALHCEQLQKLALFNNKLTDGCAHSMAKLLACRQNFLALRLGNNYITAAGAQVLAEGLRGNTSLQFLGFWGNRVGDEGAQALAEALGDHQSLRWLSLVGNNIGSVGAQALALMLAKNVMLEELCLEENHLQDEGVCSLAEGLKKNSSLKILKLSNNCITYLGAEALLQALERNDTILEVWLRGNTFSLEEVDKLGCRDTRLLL

[7] = molecular target: T3, Nucleotide-binding oligomerization domain-containing protein 2; assay: NOD2 signaling inhibitors, analog potency, SAR follow-up, cell-based, set 3 (AID 2799); format: functional
HEK293 [8] = assay: SAR analysis of compounds that are cytotoxic to HEK293 - Set 3. [Related pubchem assays (depositor defined):AID1575, AID1578, AID1848, AID1849, AID2001, AID2333, AID2334, AID2335, AID2337, AID2469]; format: functional, cell-based; conditions: Homo sapiens
[9] = molecular target: T1, Nucleotide-binding oligomerization domain-containing protein 1; assay: SAR analysis of compounds that inhibit NOD1 - Set 2. [Related pubchem assays (depositor defined):AID1566, AID1575, AID1578, AID1849, AID1852, AID2333, AID2335, AID2798]; format: functional
[10] = molecular target: Beta-2 adrenergic receptor (Homo sapiens, UniProt P07550); assay: beta2AR agonists driving receptor internalization, dose response, cell-based, FAP fluorogen, flow cytometry, cherry pick 1 (AID 588763); format: functional
Beta-2 adrenergic receptor, sequence (P07550 whole entry): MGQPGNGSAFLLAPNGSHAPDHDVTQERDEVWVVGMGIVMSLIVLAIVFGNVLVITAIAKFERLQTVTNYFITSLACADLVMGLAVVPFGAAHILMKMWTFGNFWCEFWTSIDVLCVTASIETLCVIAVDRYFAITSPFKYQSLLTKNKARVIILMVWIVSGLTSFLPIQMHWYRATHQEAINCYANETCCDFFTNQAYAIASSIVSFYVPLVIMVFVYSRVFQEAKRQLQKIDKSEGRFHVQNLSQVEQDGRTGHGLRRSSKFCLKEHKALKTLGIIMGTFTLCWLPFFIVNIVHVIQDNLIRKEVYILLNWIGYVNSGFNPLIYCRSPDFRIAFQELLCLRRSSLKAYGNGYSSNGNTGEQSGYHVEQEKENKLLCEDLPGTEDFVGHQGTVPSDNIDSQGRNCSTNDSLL

[11] = reduction of Shn3 3'UTR firefly luciferase signal, dose response, Schnurri-3 inhibitor project, cell-based, Clone20 osteoblasts, cherry-pick, set 2 (AID 720490); format: functional;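 further: actives lower the luminescence signal as inhibitors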
[12] = Shn3 3'UTR reporter inhibitors, dose response, cell-based, Clone20 osteoblasts, firefly luciferase, cherry-picked (AID 624132); format: functional;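 further: firefly luciferase luminescence from reporter carrying the Shn3 3'UTR in osteoblasts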
[13] = control 3'UTR Renilla luciferase suppression, dose response, counter-screen for Shn3 inhibitor project, cell-based, Clone20-Shn3RL, cherry-picked (AID 624133); format: functional
[14] = molecular target: Voltage-gated inwardly rectifying potassium channel KCNH2 (Homo sapiens, UniProt Q12809); conditions: Potency;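 further: confirmatory quantitative high-throughput screen measuring inhibition of hERG channel activity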
Voltage-gated inwardly rectifying potassium channel KCNH2, sequence (Q12809 whole entry): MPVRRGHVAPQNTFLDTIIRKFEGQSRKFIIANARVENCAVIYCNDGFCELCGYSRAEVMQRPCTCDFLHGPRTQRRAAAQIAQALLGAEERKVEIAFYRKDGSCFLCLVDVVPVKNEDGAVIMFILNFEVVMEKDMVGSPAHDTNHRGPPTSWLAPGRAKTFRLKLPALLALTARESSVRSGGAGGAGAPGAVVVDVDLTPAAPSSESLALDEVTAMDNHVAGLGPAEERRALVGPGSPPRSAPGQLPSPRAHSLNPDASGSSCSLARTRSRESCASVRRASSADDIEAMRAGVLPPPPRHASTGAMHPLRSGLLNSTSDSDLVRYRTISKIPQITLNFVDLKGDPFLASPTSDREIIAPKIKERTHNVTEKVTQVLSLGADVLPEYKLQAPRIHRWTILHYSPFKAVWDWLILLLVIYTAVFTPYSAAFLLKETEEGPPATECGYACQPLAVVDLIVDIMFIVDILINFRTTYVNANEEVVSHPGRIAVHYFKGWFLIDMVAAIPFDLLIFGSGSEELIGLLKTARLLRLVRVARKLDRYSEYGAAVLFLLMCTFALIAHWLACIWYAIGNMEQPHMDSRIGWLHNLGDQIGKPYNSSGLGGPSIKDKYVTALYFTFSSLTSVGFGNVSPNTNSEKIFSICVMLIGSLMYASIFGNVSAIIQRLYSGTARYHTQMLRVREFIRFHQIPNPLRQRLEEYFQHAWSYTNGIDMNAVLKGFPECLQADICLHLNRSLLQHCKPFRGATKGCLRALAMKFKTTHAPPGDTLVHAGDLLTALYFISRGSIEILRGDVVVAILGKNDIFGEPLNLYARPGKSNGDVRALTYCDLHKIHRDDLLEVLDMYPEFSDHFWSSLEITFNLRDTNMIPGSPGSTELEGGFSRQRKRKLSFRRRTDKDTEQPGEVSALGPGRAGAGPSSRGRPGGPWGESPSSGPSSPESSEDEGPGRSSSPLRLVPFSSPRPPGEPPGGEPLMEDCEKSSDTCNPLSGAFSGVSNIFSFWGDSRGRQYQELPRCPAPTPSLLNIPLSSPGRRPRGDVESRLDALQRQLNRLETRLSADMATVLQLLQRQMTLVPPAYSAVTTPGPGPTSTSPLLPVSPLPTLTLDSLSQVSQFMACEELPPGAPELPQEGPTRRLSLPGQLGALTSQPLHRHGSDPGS

Cytochrome P450 1A2 = molecular target: T4, Cytochrome P450 1A2 (Homo sapiens, UniProt P05177);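 further: PubChem cytochrome P450 panel assay, CYP1A2 panel member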
T4 sequence (P05177 whole entry): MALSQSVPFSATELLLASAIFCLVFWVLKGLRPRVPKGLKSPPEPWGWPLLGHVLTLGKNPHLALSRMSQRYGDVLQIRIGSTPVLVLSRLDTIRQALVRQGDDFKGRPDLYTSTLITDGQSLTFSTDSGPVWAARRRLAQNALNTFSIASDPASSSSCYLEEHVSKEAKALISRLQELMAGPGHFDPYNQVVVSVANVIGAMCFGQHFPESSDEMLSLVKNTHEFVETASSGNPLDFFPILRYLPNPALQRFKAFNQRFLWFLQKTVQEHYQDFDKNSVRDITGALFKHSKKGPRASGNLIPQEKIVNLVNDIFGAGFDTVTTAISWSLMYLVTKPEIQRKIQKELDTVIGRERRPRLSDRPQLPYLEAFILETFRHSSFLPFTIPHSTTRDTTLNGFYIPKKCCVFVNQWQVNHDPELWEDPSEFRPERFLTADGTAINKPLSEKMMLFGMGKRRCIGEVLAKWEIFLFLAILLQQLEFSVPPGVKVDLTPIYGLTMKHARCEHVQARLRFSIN

Cytochrome P450 2C9 = Cytochrome P450 2C9 (Homo sapiens, UniProt P11712)
Cytochrome P450 2C9, sequence (P11712 whole entry): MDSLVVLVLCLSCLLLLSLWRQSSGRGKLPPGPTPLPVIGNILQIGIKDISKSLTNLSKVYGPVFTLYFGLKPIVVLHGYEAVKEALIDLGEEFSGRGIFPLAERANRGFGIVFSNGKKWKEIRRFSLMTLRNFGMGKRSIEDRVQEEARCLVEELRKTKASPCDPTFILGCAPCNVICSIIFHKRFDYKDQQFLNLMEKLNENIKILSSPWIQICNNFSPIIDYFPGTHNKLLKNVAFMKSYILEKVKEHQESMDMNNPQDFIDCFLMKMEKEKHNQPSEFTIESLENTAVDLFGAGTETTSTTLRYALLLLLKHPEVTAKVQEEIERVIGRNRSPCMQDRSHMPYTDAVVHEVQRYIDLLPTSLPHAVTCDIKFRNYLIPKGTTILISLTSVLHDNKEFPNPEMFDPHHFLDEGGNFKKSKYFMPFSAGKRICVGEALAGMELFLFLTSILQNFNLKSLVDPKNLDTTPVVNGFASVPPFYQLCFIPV

Cytochrome P450 3A4 = Cytochrome P450 3A4 (Homo sapiens, UniProt P08684);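 further: CYP3A4 tested as one member of a cytochrome P450 panel screen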
Cytochrome P450 3A4, sequence (P08684 whole entry): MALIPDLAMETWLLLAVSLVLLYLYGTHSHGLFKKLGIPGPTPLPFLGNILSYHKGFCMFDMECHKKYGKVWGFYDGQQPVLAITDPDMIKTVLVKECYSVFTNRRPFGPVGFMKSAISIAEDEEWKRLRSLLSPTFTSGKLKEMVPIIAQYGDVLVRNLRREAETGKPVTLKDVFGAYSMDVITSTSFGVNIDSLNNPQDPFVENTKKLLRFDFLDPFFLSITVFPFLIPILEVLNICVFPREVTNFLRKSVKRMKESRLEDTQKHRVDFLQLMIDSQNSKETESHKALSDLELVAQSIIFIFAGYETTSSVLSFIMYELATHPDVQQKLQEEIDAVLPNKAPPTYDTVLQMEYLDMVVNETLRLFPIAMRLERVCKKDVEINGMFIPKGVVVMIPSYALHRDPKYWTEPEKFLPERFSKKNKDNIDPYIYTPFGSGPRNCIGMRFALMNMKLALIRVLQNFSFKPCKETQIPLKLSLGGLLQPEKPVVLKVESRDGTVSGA

Cytochrome P450 2D6 = Cytochrome P450 2D6 (Homo sapiens, UniProt P10635);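 further: CYP2D6 member of a cytochrome P450 panel assay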
Cytochrome P450 2D6, sequence (P10635 whole entry): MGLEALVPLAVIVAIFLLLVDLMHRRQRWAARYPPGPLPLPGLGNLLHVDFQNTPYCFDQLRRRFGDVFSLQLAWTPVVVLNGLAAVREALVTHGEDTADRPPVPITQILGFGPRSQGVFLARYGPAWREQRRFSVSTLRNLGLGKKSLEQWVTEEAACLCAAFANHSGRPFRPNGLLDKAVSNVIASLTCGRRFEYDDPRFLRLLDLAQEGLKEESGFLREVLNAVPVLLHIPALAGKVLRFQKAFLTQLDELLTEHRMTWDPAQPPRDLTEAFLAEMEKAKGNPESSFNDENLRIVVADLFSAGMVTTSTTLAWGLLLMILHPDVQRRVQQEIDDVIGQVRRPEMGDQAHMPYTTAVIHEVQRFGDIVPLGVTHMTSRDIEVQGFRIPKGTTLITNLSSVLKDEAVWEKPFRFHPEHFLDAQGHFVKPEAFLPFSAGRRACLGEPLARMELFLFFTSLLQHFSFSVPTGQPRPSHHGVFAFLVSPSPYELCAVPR

Cytochrome P450 2C19 = Cytochrome P450 2C19 (Homo sapiens, UniProt P33261); assay: Cytochrome panel assay with activity outcomes. Panel member name: p450-cyp2c19 Compounds with AC50 equal or less than 10 uM are considered active; format: functional
Cytochrome P450 2C19, sequence (P33261 whole entry): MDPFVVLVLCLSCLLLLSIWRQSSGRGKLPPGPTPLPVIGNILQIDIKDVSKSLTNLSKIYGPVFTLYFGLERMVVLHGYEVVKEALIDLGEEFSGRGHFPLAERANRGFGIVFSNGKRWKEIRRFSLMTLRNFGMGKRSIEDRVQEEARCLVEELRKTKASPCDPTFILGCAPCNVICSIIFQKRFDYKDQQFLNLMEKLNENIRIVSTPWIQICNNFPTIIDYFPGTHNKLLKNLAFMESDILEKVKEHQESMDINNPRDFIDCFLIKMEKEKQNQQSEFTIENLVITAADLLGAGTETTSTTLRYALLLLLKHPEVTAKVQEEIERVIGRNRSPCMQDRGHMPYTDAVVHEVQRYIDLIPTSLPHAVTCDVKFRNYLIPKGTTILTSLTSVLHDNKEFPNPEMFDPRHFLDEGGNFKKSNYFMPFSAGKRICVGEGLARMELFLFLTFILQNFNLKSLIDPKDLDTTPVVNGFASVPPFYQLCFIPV

[15] = growth suppression of PTEN-null colon cells, dose response, cell-based, HCT116 PTEN knockout (AID 1047); format: functional;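 further: HCT116 colon tumor cells with PTEN knocked out; cells exposed to compound for 60 hours before readout; potency for loss of cell viability measured by luminescence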
HEK293 [16] = assay: cells; conditions: Homo sapiens
[17] = growth suppression of beta-catenin-knockout colon cells, dose response, cell-based, HCT116, human colon tumor (AID 1045); format: functional;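 further: HCT116 colon tumor cells with beta catenin knocked out; cells exposed to compound for 60 hours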
HEK293 [18] = assay: cells; conditions: Homo sapiens; remark: listed apart in the source

Question: For CCCn1c(SCC(=O)Nc2nc3c(s2)CCCC3)nc2c1c(=O)n(C)c(=O)n2C, which IC50 [1] is on record?
Answer: 1.36 µM (active)

Question: What about the IC50 [2] of the same compound?
Answer: > 25 µM (inactive)

Question: And the IC50 (Interleukin-8 [3])?
Answer: > 25 µM (inactive)

Question: What about the IC50 (HEK293 [4]) of the same compound?
Answer: > 20 µM (inactive)

Question: What about the IC50 (Tumor necrosis factor) of the same compound?
Answer: 2.12 µM (active)

Question: What about the IC50 (Interleukin-8 [5]) of the same compound?
Answer: > 25 µM (inactive)

Question: What about the IC50 [6] of the same compound?
Answer: 1.98 µM (active)

Question: What about the IC50 [7] of the same compound?
Answer: 1.2 µM (active)

Question: And the IC50 (HEK293 [8])?
Answer: > 20 µM (inactive)

Question: What about the IC50 [9] of the same compound?
Answer: 1.63 µM (active)

Question: Which IC50 [1] does the source give for C/C=C/Cn1c(SCc2ccc(Cl)cc2)nc2c1c(=O)[nH]c(=O)n2C here?
Answer: > 20 µM (inactive)

Question: What about the IC50 [2] of the same compound?
Answer: > 25 µM (inactive)

Question: What about the IC50 (Interleukin-8 [3]) of the same compound?
Answer: > 25 µM (inactive)

Question: And the IC50 (HEK293 [4])?
Answer: > 20 µM (inactive)

Question: What about the IC50 (Tumor necrosis factor) of the same compound?
Answer: > 20 µM (inactive)

Question: What about the IC50 (Interleukin-8 [5]) of the same compound?
Answer: > 25 µM (inactive)

Question: And the IC50 [6]?
Answer: 13.7 µM (active)

Question: What about the IC50 [7] of the same compound?
Answer: > 20 µM (inactive)

Question: What about the IC50 (HEK293 [8]) of the same compound?
Answer: > 20 µM (inactive)

Question: And the IC50 [9]?
Answer: 14.7 µM (active)

Question: Which EC50 [10] does the source give for COc1ccccc1OCCCC(=O)Nc1nccs1 here?
Answer: 5.11 µM (active)

Question: With Cc1ccc(-c2nc3ncccc3o2)cc1NC(=O)c1sc2ccccc2c1Cl as the compound, how does the AC50 [11] read?
Answer: 11.8 µM (active)

Question: And the EC50 [10]?
Answer: 0.722 µM (active)

Question: What about the AC50 [12] of the same compound?
Answer: 5.87 µM (active)

Question: What about the AC50 [13] of the same compound?
Answer: 36.5 µM (active)

Question: Which AC50 [14] does the source give for Nc1nc2c(nc(Br)n2C2O[C@H]3CO[P@@](=O)(O)O[C@@H]3C2O)c(=O)[nH]1 (stereo not given in full) here?
Answer: 5.62 µM (inconclusive)

Question: For c1ccc(C(c2ccccc2)N2CC3(CCNCC3)C2)cc1, which AC50 (Cytochrome P450 1A2) is on record?
Answer: 15.8 µM (inconclusive)

Question: What about the AC50 (Cytochrome P450 2C9) of the same compound?
Answer: 39.8 µM (inconclusive)

Question: And the AC50 (Cytochrome P450 3A4)?
Answer: inconclusive

Question: Which AC50 (Cytochrome P450 2D6) does the source give for O=C(O)CC1(C(=O)O)CCCCC1 here?
Answer: inconclusive

Question: And the AC50 (Cytochrome P450 2C19)?
Answer: inconclusive

Question: Which EC50 [15] does the source give for COc1ccc(-c2[nH]c(-c3ccc(Cl)cc3)nc2SCC(=O)Nc2nccs2)cc1 here?
Answer: 15.9 µM (active)

Question: What about the EC50 (HEK293 [16]) of the same compound?
Answer: > 59.7 µM (inactive)

Question: And the EC50 [17]?
Answer: 15.3 µM (active)

Question: What about the EC50 (HEK293 [18]) of the same compound?
Answer: > 59.7 µM (inactive)
